Several values for one entry are separate records, joined by “and”; a condition that tells them apart may be missing. Identical values can stand only once. Entries after “also recorded” stand apart in the source; their conditions may differ. Like-named read-outs stand apart in the source and are kept apart here.
How the values were obtained:
[1] = test system: human saphenous vein; experiment: Vasodilating effect on human saphenous vein pre-contracted with phenylephrine; conditions: for IC50: phenylephrine 3×10^−6M
Experimental: FIG. 2 represent the vasodilating effect of dioclein in the human saphenous vein, pre-contracted with phenylephrine (3×10^−6M) in the presence or absence of functional endothelium. The relaxation data represent the percentage of reduction of the contraction by phenylephrine in response to dioclein and have been expressed on average±SEM. *P<0.05 (two-way ANOVA with post-test comparison BONFERRONI. The vessels of 8 patients with and 8 without functional endothelium were analyzed.
The data represent the percentage of reduction of the contraction by phenylephrine in response to dioclein and have been expressed average±SEM. *P<0.05. ***P<0.001 (two-way ANOVA with post-test comparison BONFERRONI). One has analyzed 8 vessels of the control group, 5 vessels of the group incubated with H-89.
FIG. 4 illustrates the effect of Rp-8-pCPT cGMPS (10 μM) on the relaxation induced by dioclein on the human saphenous vein without functional endothelium, pre-contracted with phenylephrine (3×10^−6M). The data represent the percentage of reduction of the contraction with phenylephrine in response to dioclein and have been expressed in average±SEM. ***P<0.001 (two-way ANOVA with post-test comparison of BONFERRONI). One has analyzed 8 vessels of the control group and 5 vessels of the group incubated with Rp-8-pCPT cGMPS.
The data represent the percentage of reduction of the contraction with phenylephrine in response to dioclein and have been expressed in average±SEM. One has analyzed 8 vessels of the dioclein group, 7 vessels of the 8-MM-IBMX group and 9 vessels of the vinpocetine group.
FIG. 2 illustrates the effect of the flavonoids of the present invention on the human saphenous vein. […] FIG. 3 illustrates the effect of dioclein on the human saphenous vein without functional endothelium, in the absence and in the presence of an inhibitor selective of protein Kinase A, which is the intracellular receptor of AMPc.

[2] = test system: PDE1; conditions: cited from earlier work
[3] = molecular target: PDE5 (Homo sapiens, UniProt O76074); conditions: cited from earlier work
[4] = test system: T1, PDE1; experiment: PDE1 inhibition, enzyme isolated from smooth muscle of ox aorta; assay type: biochemical
T1 construct: IC50 PDE1 − calmodulin; other: without calmodulin; Ki PDE1 − calmodulin; other: with calmodulin; Ki PDE1 + calmodulin; other: versus literature value of 8-MM-IBMX; times more pot

[5] = molecular target: T2, PDE5 (Bos taurus, UniProt Q28156); experiment: PDE5 inhibition, enzyme isolated from smooth muscle of ox aorta; assay type: biochemical
T2 construct: isolated from the smooth muscle of ox aorta; from tissue; host or cells: smooth muscle of ox aorta

[6] = molecular target: T3, PDE3 (Bos taurus, UniProt A0A3Q1M1E8); experiment: PDE3 inhibition, enzyme isolated from smooth muscle of ox aorta; assay type: biochemical
T3 sequence (A0A3Q1M1E8 1-1126): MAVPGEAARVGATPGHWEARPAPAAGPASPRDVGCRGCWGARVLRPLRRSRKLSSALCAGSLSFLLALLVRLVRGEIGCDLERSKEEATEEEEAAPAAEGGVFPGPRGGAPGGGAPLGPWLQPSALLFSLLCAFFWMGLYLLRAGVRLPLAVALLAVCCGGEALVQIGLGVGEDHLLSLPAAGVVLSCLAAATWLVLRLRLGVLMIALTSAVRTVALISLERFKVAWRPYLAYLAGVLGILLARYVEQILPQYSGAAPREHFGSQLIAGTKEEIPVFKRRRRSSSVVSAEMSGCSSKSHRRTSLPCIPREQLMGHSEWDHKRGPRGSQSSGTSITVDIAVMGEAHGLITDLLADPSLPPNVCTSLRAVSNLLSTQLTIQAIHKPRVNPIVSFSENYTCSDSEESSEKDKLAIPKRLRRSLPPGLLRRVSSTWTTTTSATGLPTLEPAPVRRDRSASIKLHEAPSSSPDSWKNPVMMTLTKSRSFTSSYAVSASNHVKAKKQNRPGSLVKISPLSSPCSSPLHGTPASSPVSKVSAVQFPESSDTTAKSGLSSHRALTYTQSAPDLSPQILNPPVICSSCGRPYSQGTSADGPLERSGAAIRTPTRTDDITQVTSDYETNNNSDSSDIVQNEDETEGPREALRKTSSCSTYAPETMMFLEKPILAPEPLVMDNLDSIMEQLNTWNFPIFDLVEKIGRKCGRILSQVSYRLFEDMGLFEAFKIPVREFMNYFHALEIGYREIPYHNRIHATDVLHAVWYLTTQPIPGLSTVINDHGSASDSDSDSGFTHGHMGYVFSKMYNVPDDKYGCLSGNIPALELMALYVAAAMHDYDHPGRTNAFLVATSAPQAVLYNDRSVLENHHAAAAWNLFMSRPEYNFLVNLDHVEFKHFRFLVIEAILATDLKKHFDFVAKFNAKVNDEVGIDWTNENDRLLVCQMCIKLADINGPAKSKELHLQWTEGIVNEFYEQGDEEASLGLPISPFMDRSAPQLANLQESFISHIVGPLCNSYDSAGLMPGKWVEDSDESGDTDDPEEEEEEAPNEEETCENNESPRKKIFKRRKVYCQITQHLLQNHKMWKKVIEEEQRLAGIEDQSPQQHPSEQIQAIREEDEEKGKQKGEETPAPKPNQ

[7] = molecular target: T4, PDE2 (Homo sapiens, UniProt O00408); experiment: PDE2 inhibition, enzyme isolated from human platelets; assay type: biochemical
T4 construct: on the PDE2 isolated from human platelets; from tissue; host or cells: human platelets
T4 sequence (O00408 whole entry): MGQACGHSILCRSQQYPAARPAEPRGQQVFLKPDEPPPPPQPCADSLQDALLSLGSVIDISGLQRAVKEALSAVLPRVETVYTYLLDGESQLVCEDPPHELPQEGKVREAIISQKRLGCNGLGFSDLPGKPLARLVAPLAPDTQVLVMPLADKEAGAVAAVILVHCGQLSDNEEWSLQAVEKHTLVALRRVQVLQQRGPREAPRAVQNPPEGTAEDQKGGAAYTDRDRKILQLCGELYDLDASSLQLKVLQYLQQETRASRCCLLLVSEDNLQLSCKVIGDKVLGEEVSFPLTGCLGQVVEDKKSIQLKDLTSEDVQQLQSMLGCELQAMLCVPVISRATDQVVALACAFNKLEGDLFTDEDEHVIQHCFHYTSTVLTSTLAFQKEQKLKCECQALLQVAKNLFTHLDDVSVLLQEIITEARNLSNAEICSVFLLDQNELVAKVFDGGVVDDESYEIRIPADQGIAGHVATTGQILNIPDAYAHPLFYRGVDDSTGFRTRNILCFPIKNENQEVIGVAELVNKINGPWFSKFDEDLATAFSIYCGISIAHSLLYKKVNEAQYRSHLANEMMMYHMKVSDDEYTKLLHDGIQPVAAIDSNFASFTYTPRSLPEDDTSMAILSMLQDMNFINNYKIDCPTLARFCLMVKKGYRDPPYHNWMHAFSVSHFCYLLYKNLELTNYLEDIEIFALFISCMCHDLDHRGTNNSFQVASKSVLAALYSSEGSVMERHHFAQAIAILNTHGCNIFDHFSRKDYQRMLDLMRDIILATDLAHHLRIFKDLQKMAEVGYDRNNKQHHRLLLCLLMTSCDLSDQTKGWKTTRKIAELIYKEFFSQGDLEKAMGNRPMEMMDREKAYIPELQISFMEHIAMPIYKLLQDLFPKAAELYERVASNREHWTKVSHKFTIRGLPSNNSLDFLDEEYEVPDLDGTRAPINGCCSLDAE

[8] = test system: PDE4; experiment: PDE4 inhibition, enzyme isolated from smooth muscle of ox aorta; assay type: biochemical
[9] = test system: PDE1; experiment: PDE1 inhibition, enzyme isolated from smooth muscle of ox aorta; assay type: biochemical; conditions: PDE1 versus PDE2-PDE5
[10] = Solubility; assay type: physicochemical
[11] = test system: arterial pressure of mice; experiment: Hypotensor effect on arterial pressure of mice; assay type: in vivo; conditions: dissolved with DMSO
Experimental: FIG. 7 is a representative example of the effect of dioclein (2.5 mg/kg) and of the inclusion product of dioclein in cyclodextrin (inclusion: 2.5 mg/kg), applied by intraperitoneal route, on the arterial pressure of mice. In the highlight we can see the average±SEM of the maximum effect achieved on 6 different mice. In these experiments dioclein and the inclusion product of dioclein in the cyclodextrin were dissolved with the aid of DMSO.
FIG. 8 is a representative example of the effect of dioclein (10 mg/kg) and of the inclusion product of dioclein in cyclodextrin (inclusion: 10 mg/kg), applied by oral route, on the arterial pressure of mice. In the highlight one can see the average±SEM of maximum effect achieve in 3 different mice. In this experiments dioclein and the inclusion product of dioclein in cyclodextrin were dissolved with the aid of DMSO.
FIG. 9 is a representative example of the effect of the inclusion product of dioclein in cyclodextrin (inclusion; 10 mg/kg), solubilized in water, applied by oral route, on the arterial pressure of mice.
FIG. 7 illustrates the effect of dioclein and of dioclein included in cyclodextrin, dissolved with the aid of DMSO on the arterial pressure of mice. […] FIG. 8 illustrates the effect of dioclein and of dioclein included in cyclodextrin dissolved with the aid of DMSO on the arterial pressure of mice when applied by oral route (gavage). […]

[12] = molecular target: potassium channels of the type sensitive to high-conductance calcium (Homo sapiens, UniProt Q12791); conditions: cited from earlier work
Sequence of potassium channels of the type sensitive to high-conductance calcium (Q12791 whole entry): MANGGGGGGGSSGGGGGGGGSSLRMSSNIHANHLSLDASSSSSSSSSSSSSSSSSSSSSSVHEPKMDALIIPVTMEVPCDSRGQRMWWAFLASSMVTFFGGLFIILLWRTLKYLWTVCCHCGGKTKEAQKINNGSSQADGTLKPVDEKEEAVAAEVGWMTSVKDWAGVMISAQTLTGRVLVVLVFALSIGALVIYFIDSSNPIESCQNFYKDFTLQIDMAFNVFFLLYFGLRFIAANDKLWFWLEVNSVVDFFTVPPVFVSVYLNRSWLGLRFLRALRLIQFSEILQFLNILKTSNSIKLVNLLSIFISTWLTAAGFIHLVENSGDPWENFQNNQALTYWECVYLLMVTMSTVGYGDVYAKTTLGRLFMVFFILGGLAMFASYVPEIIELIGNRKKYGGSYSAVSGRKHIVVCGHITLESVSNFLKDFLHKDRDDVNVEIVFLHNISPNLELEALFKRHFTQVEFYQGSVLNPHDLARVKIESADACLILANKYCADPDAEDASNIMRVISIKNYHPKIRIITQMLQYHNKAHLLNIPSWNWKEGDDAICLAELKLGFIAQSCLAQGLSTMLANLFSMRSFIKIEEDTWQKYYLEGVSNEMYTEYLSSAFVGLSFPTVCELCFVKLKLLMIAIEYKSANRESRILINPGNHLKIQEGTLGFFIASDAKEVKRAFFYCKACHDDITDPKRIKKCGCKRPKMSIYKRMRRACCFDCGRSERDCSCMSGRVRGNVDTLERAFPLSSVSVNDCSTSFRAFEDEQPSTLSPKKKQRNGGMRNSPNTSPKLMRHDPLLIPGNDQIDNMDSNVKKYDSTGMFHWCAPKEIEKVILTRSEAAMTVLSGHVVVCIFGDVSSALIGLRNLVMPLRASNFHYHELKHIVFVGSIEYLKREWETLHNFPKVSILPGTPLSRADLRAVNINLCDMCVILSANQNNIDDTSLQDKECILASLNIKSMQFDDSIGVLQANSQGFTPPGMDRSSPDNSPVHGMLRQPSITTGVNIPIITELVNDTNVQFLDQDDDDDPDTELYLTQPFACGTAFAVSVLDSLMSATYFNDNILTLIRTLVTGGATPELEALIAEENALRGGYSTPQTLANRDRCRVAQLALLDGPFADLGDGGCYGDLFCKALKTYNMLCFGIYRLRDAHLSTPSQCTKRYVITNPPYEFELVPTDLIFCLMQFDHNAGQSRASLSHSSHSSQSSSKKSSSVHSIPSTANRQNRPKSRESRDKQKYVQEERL

[13] = molecular target: PDE7 (Homo sapiens, UniProt Q9NP56); conditions: at the same concentrations (higher than 30 μM); cited from earlier work
Sequence of PDE7 (Q9NP56 whole entry): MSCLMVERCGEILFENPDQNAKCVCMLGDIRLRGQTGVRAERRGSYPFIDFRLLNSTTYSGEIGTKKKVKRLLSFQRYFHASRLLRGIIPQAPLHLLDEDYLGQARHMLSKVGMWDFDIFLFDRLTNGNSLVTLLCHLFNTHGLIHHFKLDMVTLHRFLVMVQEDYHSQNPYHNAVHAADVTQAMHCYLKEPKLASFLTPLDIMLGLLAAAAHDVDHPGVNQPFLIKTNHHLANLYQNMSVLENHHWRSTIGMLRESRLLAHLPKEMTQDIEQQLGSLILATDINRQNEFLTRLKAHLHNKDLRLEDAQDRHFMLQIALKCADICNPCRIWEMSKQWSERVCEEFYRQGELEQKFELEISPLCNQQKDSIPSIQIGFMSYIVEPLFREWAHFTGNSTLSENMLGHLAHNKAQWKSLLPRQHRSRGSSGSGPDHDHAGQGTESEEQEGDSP

[14] = test system: PDE1 of bovine tissue; conditions: cited from earlier work
[15] = without functional endothelium, read-out: Cl50 of vasodilating effect, absence of functional endothelium
[16] = without calmodulin, read-out: IC50 PDE1 − calmodulin
[17] = activated, +GMPc, read-out: IC50 Activated PDE2 (+GMPc)
[18] = basal, read-out: IC50 Basal PDE2

For `COCc1nc2c([nH]1)c(=O)n(C)c(=O)n2CC(C)C` [8-MM-IBMX, 8-methoxymethyl-IBMX], which IC50 [1, 15] is on record?
The IC50 was 30.9 ± 16 µM.

And the IC50 [2]?
The IC50 was 8 µM.

And the IC50 [3]?
The IC50 was 10 µM.

What does the source list for `COc1c(O)c(CC=C(C)C)c2c(c1O)C(=O)[C@H](O)[C@@H](c1ccccc1O)O2` [Floranol]?
IC50 ([4]; with calmodulin, read-out: IC50 PDE1 + calmodulin): 3060 ± 140 nM; IC50 [4, 16]: 2750 ± 200 nM; IC50 [5]: 7.14 µM; IC50 [6]: 47.1 ± 5.25 µM; IC50 [7, 17]: 65.3 ± 6.87 µM; IC50 [7, 18]: 26.8 ± 4.62 µM; IC50 [8]: 11 ± 2.31 µM

With `COc1cc2c(c(O)c1OC)C(=O)CC(c1cc(O)ccc1O)O2` (stereo not shown) [Dioclein, 5, 2′,5′-trihydroxy-6,7-dimethoxyflavanone] as the compound, how does the IC50 ([4]; calmodulin state not stated in text, listed as dioclein, read-out: IC50 of inhibitory effect on PDE1 (running text)) read?
The IC50 was 1440 ± 350 nM.

What about the IC50 ([4]; calmodulin state not stated in text, read-out: IC50 of inhibitory effect on PDE1 (running text)) of the same compound?
The IC50 was 1400 nM.

And the “times more potent than 8-MM-IBMX (PDE1)” value ([4]; versus literature value of 8-MM-IBMX)?
Its value is 8 times.

What about the “times more potent than vinpocetine (PDE1)” value ([4]; versus literature value of vinpocetine) of the same compound?
Its value is “about 30 times”.

What about the Ki ([4]; with calmodulin) of the same compound?
The Ki was 590 nM.

And the Ki ([4]; without calmodulin)?
The Ki was 620 nM.

And the IC50 [4, 16]?
The IC50 was 2470 ± 260 nM.

And the “selectivity: PDE1 inhibited at concentrations times smaller than for PDE2, PDE3, PDE4 and PDE5” value [9]?
The value was 20 to 100 times and 20-100 times.

What about the “solubility in DMSO and methanol” value ([10]; DMSO, methanol) of the same compound?
Its value is “soluble in DMSO and methanol”.

And the solubility in water ([10]; water)?
Its solubility in water is “insolubility in water; also recorded: low solubility in water; also recorded: very low solubility in water”.

What about the IC50 ([1]; Homo sapiens, with functional endothelium, read-out: Cl50 of vasodilating effect, presence of functional endothelium) of the same compound?
Its IC50 is 3 ± 0.2 µM.

What about the IC50 ([1]; Homo sapiens, without functional endothelium, read-out: Cl50 of vasodilating effect, absence of functional endothelium) of the same compound?
Its IC50 is 11 ± 0.4 µM.

What about the “vasodilating effect in the presence of H-89 (protein kinase A inhibitor)” value ([1]; without functional endothelium, H-89 1 μM) of the same compound?
The value was “displaced to the right”.

And the IC50 [1, 15]?
The IC50 was 11.1 ± 2.7 µM.

And the IC50 [5]?
Its IC50 is 23 ± 5.5 µM.

What about the IC50 [7, 17] of the same compound?
Its IC50 is 38.2 ± 8.92 µM.

And the IC50 [7, 18]?
Its IC50 is 100 ± 0.5 µM.

What about the “effect on arterial pressure, intraperitoneal route” value ([11]; 2.5 mg/kg i.p.) of the same compound?
Its value is “reduced the arterial pressure of mice”.

And the “effect on arterial pressure, oral route (gavage), DMSO” value ([11]; 10 mg/kg oral)?
The value was “not active via oral route”.

And the IC50 [8]?
The IC50 was 16.8 ± 1.42 µM.

Which “direct activation of potassium channels” value [12] does the source give for `CCOC(=O)C1=C[C@]2(CC)CCCN3CCc4c(n1c1ccccc41)[C@@H]32` [Vinpocetine] here?
Its value is “capable of directly activating potassium channels”.

And the PDE7 inhibition [13]?
Its PDE7 inhibition is “inhibits PDE7”.

And the maximum vasodilating effect ([1]; without functional endothelium)?
Its maximum vasodilating effect is 30%.

And the “concentrations showing inhibitory effect on PDE1” value [14]?
Its value is “higher than 30 μM”.
